Measurements reported in ChEMBL document CHEMBL3608280, “Tetramic Acids and Pyridone Alkaloids from the Endolichenic Fungus Tolypocladium cylindrosporum” (J Nat Prod, 2015).

Assays:
[1] = system: MDA-MB-231; test: Cytotoxicity against human MDA-MB-231 cells assessed as growth inhibition after 48 hrs by MTT assay; assay type: functional, cell-based; settings: MDA-MB-231, 48 h
[2] = system: A549; test: Cytotoxicity against human A549 cells assessed as growth inhibition after 48 hrs by MTT assay; assay type: functional, cell-based; settings: A549, 48 h
[3] = system: A2780; test: Cytotoxicity against human A2780 cells assessed as growth inhibition after 48 hrs by MTT assay; assay type: functional, cell-based; settings: A2780, 48 h
[4] = system: K562; test: Cytotoxicity against human K562 cells assessed as growth inhibition after 48 hrs by MTT assay; assay type: functional, cell-based; settings: K562, 48 h
[5] = system: A549; test: Cell cycle arrest in human A549 cells assessed as accumulation at G0/G1 phase after 24 hrs by propidium iodide staining-based flow cytometric analysis; assay type: functional
[6] = system: A549; test: Cell cycle arrest in human A549 cells assessed as accumulation at G1 phase at 1 uM after 24 hrs by propidium iodide staining-based flow cytometric analysis (reference value: 52.73%); assay type: functional
[7] = system: A549; test: Cell cycle arrest in human A549 cells assessed as accumulation at S phase at 1 uM after 24 hrs by propidium iodide staining-based flow cytometric analysis (reference value: 36.98%); assay type: functional
[8] = system: A549; test: Cell cycle arrest in human A549 cells assessed as accumulation at G2/M phase at 1 uM after 24 hrs by propidium iodide staining-based flow cytometric analysis (reference value: 10.29%); assay type: functional
[9] = system: A549; test: Cell cycle arrest in human A549 cells assessed as accumulation at G1 phase at 2 uM after 24 hrs by propidium iodide staining-based flow cytometric analysis (reference value: 52.73%); assay type: functional
[10] = system: A549; test: Cell cycle arrest in human A549 cells assessed as accumulation at S phase at 2 uM after 24 hrs by propidium iodide staining-based flow cytometric analysis (reference value: 36.98%); assay type: functional
[11] = system: A549; test: Cell cycle arrest in human A549 cells assessed as accumulation at G2/M phase at 2 uM after 24 hrs by propidium iodide staining-based flow cytometric analysis (reference value: 10.29%); assay type: functional
[12] = system: A549; test: Induction of apoptosis in human A549 cells after 48 hrs by annexin V-FITC/propidium iodide staining-based flow cytometric analysis; assay type: functional, cell-based
[13] = system: A549; test: Induction of apoptosis in human A549 cells assessed as early apoptotic cells at 1 uM after 48 hrs by annexin V-FITC/propidium iodide staining-based flow cytometric analysis (reference value: 0.86%); assay type: functional
[14] = system: A549; test: Induction of apoptosis in human A549 cells assessed as late apoptotic cells at 1 uM after 48 hrs by annexin V-FITC/propidium iodide staining-based flow cytometric analysis (reference value: 3.94%); assay type: functional
[15] = system: A549; test: Induction of apoptosis in human A549 cells assessed as dead cells at 1 uM after 48 hrs by annexin V-FITC/propidium iodide staining-based flow cytometric analysis (reference value: 0.43%); assay type: functional
[16] = system: A549; test: Induction of apoptosis in human A549 cells assessed as early apoptotic cells at 2 uM after 48 hrs by annexin V-FITC/propidium iodide staining-based flow cytometric analysis (reference value: 0.86%); assay type: functional
[17] = system: A549; test: Induction of apoptosis in human A549 cells assessed as late apoptotic cells at 2 uM after 48 hrs by annexin V-FITC/propidium iodide staining-based flow cytometric analysis (reference value: 3.94%); assay type: functional
[18] = system: A549; test: Induction of apoptosis in human A549 cells assessed as dead cells at 2 uM after 48 hrs by annexin V-FITC/propidium iodide staining-based flow cytometric analysis (reference value: 0.43%); assay type: functional

Compound | IC50 [1] [µM] | IC50 [2] [µM] | IC50 [3] [µM] | IC50 [4] [µM] | also measured
C/C=C\C[C@H](C)C[C@H](C)/C(O)=C1/C(=O)N[C@@H]([C@@H](O)c2ccc(O)cc2)C1=O | > 40 | > 40 | > 40 | > 40 | –
C=C[C@@H]1C[C@H](C)C[C@H](C)C1c1c(O)ccn(O)c1=O (stereo partly drawn) | 1.63 | 1.24 | 1.36 | 1.83 | Activity [5]: Dose-dependent effect; Activity [6]: 78.16%; Activity [7]: 17.49%; Activity [8]: 4.35%; Activity [9]: 82.63%; Activity [10]: 16.02%; Activity [11]: 1.35%; Activity [12]: Dose-dependent effect; Activity [13]: 3%; Activity [14]: 21.94%; Activity [15]: 4.25%; Activity [16]: 1.06%; Activity [17]: 28.3%; Activity [18]: 5.41%
C=C[C@@H]1C[C@H](C)C[C@H](C)C1c1c(O)cc[nH]c1=O (stereo partly drawn) | > 40 | > 40 | > 40 | > 40 | –
CC(C)(O)[C@@H]1C[C@@H](O)[C@]2(C)[C@H](CC[C@@]3(C)[C@H]2CC[C@H]2Cc4c([nH]c5ccccc45)[C@@]23C)O1 [TERPENDOLE E] | 39.2 | 18.8 | 31.1 | 38.7 | –
C/C=C\C[C@H](C)C[C@H](C)/C(O)=C1/C(=O)N/C(=C\c2ccc(O)cc2)C1=O | > 40 | > 40 | > 40 | > 40 | –
Cc1cc(O)c2oc(=O)c(O)c(-c3ccc(O)cc3)c2c1 | > 40 | > 40 | > 40 | > 40 | –
COc1cccc2c1C(=O)c1c(O)c3c(c(O)c1C2=O)C[C@@](O)(C(=O)CO)C[C@@H]3O[C@H]1C[C@H](N)[C@H](O)[C@H](C)O1 [DOXORUBICIN] | – | 0.51 | 0.6 | 1.1 | –
C/C=C\C[C@@H](C)C[C@@H](C)/C(O)=C1/C(=O)N/C(=C\c2ccc(O)cc2)C1=O | > 40 | > 40 | > 40 | > 40 | –
C/C=C\C[C@H](C)C[C@H](C)/C(O)=C1/C(=O)N[C@H]([C@H](O)c2ccc(O)cc2)C1=O | > 40 | > 40 | > 40 | > 40 | –
CC1Oc2c(-c3ccc(O)cc3)c[nH]c(=O)c2[C@@H]2[C@@H](C)C[C@@H](C)C[C@@H]12 (stereo partly drawn) | > 40 | > 40 | > 40 | > 40 | –
